In ChEMBL document CHEMBL1201862, “PubChem BioAssay data set” (2004):
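Interpolation was linear, between the two tested concentrations surrounding the appropriate level; five concentrations were tested over 48 hours in 96-well plates. Abbreviation: GI50, concentration required for 50% inhibition of growth.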 Calls of active or inactive are those of the source. Rule as the data show it: active = GI50 up to about 1.1 µM and inactive = higher.

What was measured:
Assay in all cases: NCI tumour cell line growth inhibition, 48 h
NCI-H226 = test system: NCI-H226
UACC-62 = test system: UACC-62
CCRF-CEM = test system: CCRF-CEM
ACHN = test system: ACHN
A498 = test system: A498
KM12 = test system: KM12
786-0 = test system: 786-0
TK-10 = test system: TK-10
OVCAR-3 = test system: OVCAR-3
SNB-75 = test system: SNB-75
OVCAR-4 = test system: OVCAR-4
SR = test system: SR
KM-20L2 = test system: KM-20L2
UACC-257 = test system: UACC-257
A549 = test system: A549
HOP-92 = test system: HOP-92
MCF7 = test system: MCF7
NCI/ADR-RES = test system: NCI/ADR-RES
BT-549 = test system: BT-549
MDA-N = test system: MDA-N

| SMILES | GI50 (NCI-H226) | GI50 (UACC-62) | GI50 (CCRF-CEM) | GI50 (ACHN) | GI50 (A498) | GI50 (KM12) | GI50 (786-0) | GI50 (TK-10) | GI50 (OVCAR-3) | GI50 (SNB-75) | GI50 (OVCAR-4) | GI50 (SR) | GI50 (KM-20L2) | GI50 (UACC-257) | GI50 (A549) | GI50 (HOP-92) | GI50 (MCF7) | GI50 (NCI/ADR-RES) | GI50 (BT-549) | GI50 (MDA-N) |
| --- | --- | --- | --- | --- | --- | --- | --- | --- | --- | --- | --- | --- | --- | --- | --- | --- | --- | --- | --- | --- |
| COc1cc(Cl)cc(O)c(=O)c1OC | 25.2 µM (inactive) | 24.4 µM (inactive) | 12.7 µM (inactive) | 37.2 µM (inactive) | 57.1 µM (inactive) | 72.8 µM (inactive) | 61.1 µM (inactive) | 44.1 µM (inactive) | 20.1 µM (inactive) | 59.2 µM (inactive) | 25.7 µM (inactive) | 2.2 µM (inactive) | 37.9 µM (inactive) | 48.8 µM (inactive) |  |  |  |  |  |  |
| Cc1ccc(C2CC(c3ccco3)=NN2c2ccccc2)o1 (stereo not given) | > 100 µM (inactive) | > 100 µM (inactive) | > 100 µM (inactive) | > 100 µM (inactive) |  | > 100 µM (inactive) | > 100 µM (inactive) | > 100 µM (inactive) | > 100 µM (inactive) | > 100 µM (inactive) | > 100 µM (inactive) | > 100 µM (inactive) | > 100 µM (inactive) |  | > 100 µM (inactive) |  |  |  |  |  |
| COc1ccc(/C=C/c2onc3c(=O)n(C)nc(-c4ccccc4)c23)cc1 |  | > 100 µM (inactive) | > 100 µM (inactive) | > 100 µM (inactive) |  |  | > 100 µM (inactive) | > 100 µM (inactive) |  |  |  |  | > 100 µM (inactive) |  | > 100 µM (inactive) | 7.26 µM (inactive) |  |  |  |  |
| CCCCN(CCCC)CCCCNc1c(C)cnc2cc(Cl)ccc12 | 16.4 µM (inactive) |  | 49.1 µM (inactive) | 24.3 µM (inactive) | 23.6 µM (inactive) | 36.6 µM (inactive) | 14 µM (inactive) | 34.4 µM (inactive) | 30.2 µM (inactive) |  | 49.2 µM (inactive) |  | 11.3 µM (inactive) | 14.6 µM (inactive) | 30.9 µM (inactive) | 13.5 µM (inactive) |  |  |  |  |
| COC1=CC(=O)C2C(C1=O)C(c1ccc(OC)c(OC)c1)[C@H]2C (stereo not given in full) | > 100 µM (inactive) | > 100 µM (inactive) | 22.6 µM (inactive) | 18.7 µM (inactive) | > 100 µM (inactive) | > 100 µM (inactive) | 18 µM (inactive) | 19 µM (inactive) | 19.6 µM (inactive) | > 100 µM (inactive) | 16.6 µM (inactive) |  | 68.9 µM (inactive) | 18.6 µM (inactive) | > 100 µM (inactive) | 20 µM (inactive) |  |  |  |  |
| COCc1c(CO)cnc(C)c1OC1OC(CO)C(O)C(O)C1O (stereo not given) | > 100 µM (inactive) | > 100 µM (inactive) |  | > 100 µM (inactive) | > 100 µM (inactive) | > 100 µM (inactive) | > 100 µM (inactive) |  | > 100 µM (inactive) | > 100 µM (inactive) | > 100 µM (inactive) | > 100 µM (inactive) | > 100 µM (inactive) | > 100 µM (inactive) | > 100 µM (inactive) |  |  |  |  |  |
| Cc1nc2[nH]ccn2c(=O)c1CCO | > 10 µM (inactive) | > 10 µM (inactive) | > 10 µM (inactive) | > 10 µM (inactive) | > 10 µM (inactive) | > 10 µM (inactive) | > 10 µM (inactive) | > 10 µM (inactive) | > 10 µM (inactive) | > 10 µM (inactive) | > 10 µM (inactive) | > 10 µM (inactive) |  | > 10 µM (inactive) | > 10 µM (inactive) | > 10 µM (inactive) | > 10 µM (inactive) | > 10 µM (inactive) | > 10 µM (inactive) | > 10 µM (inactive) |
| CC(=O)O[C@H]1CC[C@@]2(C)C(=CC[C@H]3[C@@H]4C[C@H](N5CCN(C)CC5)[C@H](OC(C)=O)[C@@]4(C)CC[C@@H]32)C1 | 28.9 µM (inactive) | 11.7 µM (inactive) | 3.98 µM (inactive) | 41.9 µM (inactive) | 20.9 µM (inactive) | 16.7 µM (inactive) | 19.2 µM (inactive) | > 100 µM (inactive) | 8.47 µM (inactive) | 24.4 µM (inactive) | 17.6 µM (inactive) | 4.68 µM (inactive) |  | 6.17 µM (inactive) | 18.5 µM (inactive) | 25.4 µM (inactive) | 5.64 µM (inactive) | 19.6 µM (inactive) | 17.8 µM (inactive) | 12.1 µM (inactive) |
| CSc1ncc2c(n1)-c1ccccc1OC2NC1CC1 (stereo not given) | 25.5 µM (inactive) | 25.8 µM (inactive) | 31.4 µM (inactive) | 49.5 µM (inactive) | 13.7 µM (inactive) | 73.5 µM (inactive) | > 100 µM (inactive) | 32.7 µM (inactive) | 57.5 µM (inactive) | 59 µM (inactive) | 30.6 µM (inactive) | > 100 µM (inactive) |  | > 100 µM (inactive) | > 100 µM (inactive) | 43.9 µM (inactive) | 58.3 µM (inactive) | 48.1 µM (inactive) | 38 µM (inactive) | > 100 µM (inactive) |
| CCCCCOC(=O)C(=O)Nc1[nH]nnc1C(N)=O | > 100 µM (inactive) | > 100 µM (inactive) | > 100 µM (inactive) | > 100 µM (inactive) | > 100 µM (inactive) | > 100 µM (inactive) | > 100 µM (inactive) | > 100 µM (inactive) | > 100 µM (inactive) | > 100 µM (inactive) | > 100 µM (inactive) | > 100 µM (inactive) |  | > 100 µM (inactive) | > 100 µM (inactive) | > 100 µM (inactive) | > 100 µM (inactive) | > 100 µM (inactive) | > 100 µM (inactive) | > 100 µM (inactive) |
| NC1(P(=O)(O)O)CCCCC1 | > 100 µM (inactive) | > 100 µM (inactive) | > 100 µM (inactive) | > 100 µM (inactive) | > 100 µM (inactive) | > 100 µM (inactive) | > 100 µM (inactive) | > 100 µM (inactive) | > 100 µM (inactive) | > 100 µM (inactive) | > 100 µM (inactive) | > 100 µM (inactive) |  | > 100 µM (inactive) | > 100 µM (inactive) | > 100 µM (inactive) | > 100 µM (inactive) | > 100 µM (inactive) | > 100 µM (inactive) | > 100 µM (inactive) |
| NCCCCCS(=O)(=O)O |  | > 100 µM (inactive) | > 100 µM (inactive) | > 100 µM (inactive) | > 100 µM (inactive) | > 100 µM (inactive) | > 100 µM (inactive) | > 100 µM (inactive) | > 100 µM (inactive) | > 100 µM (inactive) | > 100 µM (inactive) | > 100 µM (inactive) | > 100 µM (inactive) | > 100 µM (inactive) | > 100 µM (inactive) |  |  |  |  |  |
| COc1ccc(C2c3cc4c(cc3OC(NNC(N)=O)C2C)OCO4)cc1 (stereo not given) | 14.9 µM (inactive) | 5.83 µM (inactive) | 2.95 µM (inactive) | 8.75 µM (inactive) | 2.87 µM (inactive) | 4.78 µM (inactive) | 5.26 µM (inactive) | 25.8 µM (inactive) | 3.85 µM (inactive) | 6.22 µM (inactive) | 56.4 µM (inactive) | 1.9 µM (inactive) |  | 10.2 µM (inactive) | 7.73 µM (inactive) | 16.5 µM (inactive) | 4.21 µM (inactive) | 7.5 µM (inactive) | 7.16 µM (inactive) | 1.87 µM (inactive) |
| O=C1c2sccc2C(=O)c2c(CO)csc21 | 4.82 µM (inactive) | 2.52 µM (inactive) | 3.37 µM (inactive) | 3.52 µM (inactive) | 13.7 µM (inactive) | 5.02 µM (inactive) | 3.94 µM (inactive) | 7.05 µM (inactive) | 1.9 µM (inactive) | 5.24 µM (inactive) | 2.16 µM (inactive) | 3.42 µM (inactive) |  | 2.15 µM (inactive) | 0.695 µM (active) | 7.5 µM (inactive) | 5.12 µM (inactive) | 3.63 µM (inactive) | 3.59 µM (inactive) | 1.72 µM (inactive) |
| CCOC(=O)C1(Cc2ccccc2)C=CN(C(=O)c2ccccc2)C=C1 | > 100 µM (inactive) | 20.2 µM (inactive) | 20.9 µM (inactive) | 34.1 µM (inactive) | 22.9 µM (inactive) | 36.9 µM (inactive) | 43.7 µM (inactive) | 28.4 µM (inactive) | 41.3 µM (inactive) | 17.8 µM (inactive) | 42.8 µM (inactive) | 22.4 µM (inactive) |  | 20.6 µM (inactive) | 42.4 µM (inactive) | 23.4 µM (inactive) | 30.4 µM (inactive) | 36.6 µM (inactive) | 33.8 µM (inactive) | 24.3 µM (inactive) |
| COc1ccc(N2C(=O)CC(=O)N(C(=O)CCCCCCCCC(=O)N3C(=O)CC(=O)N(c4ccc(OC)cc4)C3=S)C2=S)cc1 | > 100 µM (inactive) | > 100 µM (inactive) | 31.6 µM (inactive) | > 100 µM (inactive) | > 100 µM (inactive) | 79.6 µM (inactive) | > 100 µM (inactive) | > 100 µM (inactive) | > 100 µM (inactive) | > 100 µM (inactive) | > 100 µM (inactive) | 39.4 µM (inactive) |  | > 100 µM (inactive) | > 100 µM (inactive) | > 100 µM (inactive) | > 100 µM (inactive) | > 100 µM (inactive) | 33.9 µM (inactive) | 57.4 µM (inactive) |
| O=S(=O)(CCCCl)SCCCCl | > 65.5 µM (inactive) | 36.1 µM (inactive) | 9.1 µM (inactive) | 55.7 µM (inactive) | > 55.6 µM (inactive) | 46.3 µM (inactive) | 17.4 µM (inactive) | 74.6 µM (inactive) | 31.1 µM (inactive) | 33 µM (inactive) | 15.3 µM (inactive) | 10.4 µM (inactive) |  | 45.9 µM (inactive) | 68.4 µM (inactive) | 25 µM (inactive) | 19.6 µM (inactive) | 31.9 µM (inactive) | 11.2 µM (inactive) | 27 µM (inactive) |
